# Values of other authors, collected in US20170049816A1, “Methods of Benchmarking Wellness with a Stable Reactive Oxygen Species Solution” (Reoxcyn Discoveries Group, Inc., priority 2013, published 2017).
# Conditions: pH-neutral aqueous solution (pH around 7.0) at room temperature
smiles,measurement,value
"O=[O+][O-] [dissolved ozone (O3), ozone]",half-life,about 20 min
